Series [1] can be described thus: Solubility Determination Assay in PBS pH 1.6 and pH 7.4. The class given is physicochemical. As to conditions: PBS buffer, aqueous buffer, kinetic from dmso stock. Summed up: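 Compounds from 10 mM DMSO stock diluted into PBS pH 1.6 or pH 7.4 (15 μL into 485 μL), stirred 2 hours, then filtered. Filtrate quantified by LC-MS/MS against a standard of known concentration with internal standard; single determination.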

For series [2], the target named is T1, AHR (Homo sapiens, UniProt P35869).
T1 construct: other cell line with a DRE-luciferase reporter stably transfected; endogenous in cells; host or cells: HepG2 AhR-Lucia reporter cells
T1 sequence (P35869 11-848): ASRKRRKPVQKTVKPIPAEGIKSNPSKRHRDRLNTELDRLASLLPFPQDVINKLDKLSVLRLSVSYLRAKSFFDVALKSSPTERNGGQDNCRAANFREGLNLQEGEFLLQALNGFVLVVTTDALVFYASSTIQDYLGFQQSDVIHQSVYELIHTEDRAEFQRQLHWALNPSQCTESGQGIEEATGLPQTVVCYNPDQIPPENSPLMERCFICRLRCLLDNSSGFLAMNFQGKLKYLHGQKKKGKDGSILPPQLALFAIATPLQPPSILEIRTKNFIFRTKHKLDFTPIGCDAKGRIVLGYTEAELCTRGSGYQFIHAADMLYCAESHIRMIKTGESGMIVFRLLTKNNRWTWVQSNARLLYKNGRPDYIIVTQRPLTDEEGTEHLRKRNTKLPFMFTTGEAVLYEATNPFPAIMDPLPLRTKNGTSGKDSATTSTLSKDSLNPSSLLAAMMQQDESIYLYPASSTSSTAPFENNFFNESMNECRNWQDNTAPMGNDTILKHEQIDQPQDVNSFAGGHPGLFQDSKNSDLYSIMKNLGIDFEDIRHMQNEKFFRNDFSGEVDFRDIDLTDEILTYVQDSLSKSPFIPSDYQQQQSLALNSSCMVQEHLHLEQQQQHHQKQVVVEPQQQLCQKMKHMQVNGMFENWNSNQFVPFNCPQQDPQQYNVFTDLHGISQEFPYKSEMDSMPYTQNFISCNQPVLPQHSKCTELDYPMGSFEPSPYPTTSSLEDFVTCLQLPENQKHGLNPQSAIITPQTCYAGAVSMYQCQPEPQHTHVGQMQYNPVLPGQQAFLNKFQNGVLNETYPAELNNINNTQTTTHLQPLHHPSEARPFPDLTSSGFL
Put plainly: DRE-Luciferase Reporter Assay, HepG2 AhR-Lucia reporter cells. The class given is cell-based. Conditions: with AHR activating ligand at EC50, read-out: HepG2-Luc IC50. The procedure, abridged: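 DRE-luciferase reporter cells (e.g. HepG2 AhR-Lucia, 20000 cells) treated with antagonist log dilutions from 100 uM, then an AHR agonist (e.g. TCDD, kynurenine, ITE, FICZ) at its EC50 added after 1 hr. Secreted luciferase measured after 24 or 48 h (QUANTI-Luc); IC50 = concentration halving luciferase activity.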
On the technique in general: In a reporter assay the amount or activity of a reporter protein is the signal.

Setting [3] is: PBS pH 1.6, 25° C., read-out: Aq. Solubility at pH = 1.6.
The mark [4] stands for this setting: PBS pH 7.4, 25° C., read-out: Aq. Solubility at pH = 7.4.

The structures appear in SMILES notation. Values after ≈ are worked out from the molar mass of the structure shown. Like-named read-outs stand apart in the source and are kept apart here.

For the compound `CNC(=O)[C@H](C)n1cnc2c(-c3cccnc3)nc(-c3ccc(C(F)(F)F)nc3)cc2c1=O` [Compound 156, (S)—N-methyl-2-(4-oxo-8-(pyridin-3-yl)-6-(6-(trifluoromethyl)pyridin-3-yl)pyrido[3,4-d]pyrimidin-3(4H)-yl)propanamide], the solubility at 2 h in series [1] (setting [3]) and in series [1] (setting [4]) was not below 1 µM throughout. The IC50 (commonly the concentration at which inhibition is half-maximal) in series [2] is less than 100 nM.

With `CC(C)(O)Cn1cnc2c(-n3ccnc3)nc(-c3ccc(C(F)(F)F)cn3)cc2c1=O` [Compound 160, 3-(2-hydroxy-2-methylpropyl)-8-(1H-imidazol-1-yl)-6-(5-(trifluoromethyl)pyridin-2-yl)pyrido[3,4-d]pyrimidin-4(3H)-one], the solubility at 2 h in series [1] (setting [3]) and in series [1] (setting [4]) was not below 1 µM in each case. Also, the IC50 in series [2] is less than 100 nM.

Turning to `C[C@@H](CO)n1cnc2c(-n3ccnc3)nc(-c3ccc(C(F)(F)F)cn3)cc2c1=O` [Compound 162, (S)-3-(1-hydroxypropan-2-yl)-8-(1H-imidazol-1-yl)-6-(5-(trifluoromethyl)pyridin-2-yl)pyrido[3,4-d]pyrimidin-4(3H)-one], the solubility at 2 h in series [1] (setting [3]) and in series [1] (setting [4]) was not below 1 µM throughout. For the same compound, the IC50 in series [2] is less than 100 nM.

`C[C@@H](CO)n1cnc2c(-n3ccnc3)nc(-c3ccc(C(F)(F)F)nc3)cc2c1=O` [Compound 163, (S)-3-(1-hydroxypropan-2-yl)-8-(1H-imidazol-1-yl)-6-(6-(trifluoromethyl)pyridin-3-yl)pyrido[3,4-d]pyrimidin-4(3H)-one]: the solubility at 2 h in series [1] (setting [3]) and in series [1] (setting [4]) was not below 1 µM throughout. Besides, the IC50 in series [2] was less than 100 nM.

On to `C[C@@H](CO)n1cnc2c(N3CCCCC3)nc(-c3ccc(Cl)cc3)cc2c1=O` [Compound 177, (S)-6-(4-chlorophenyl)-3-(1-hydroxypropan-2-yl)-8-(piperidin-1-yl)pyrido[3,4-d]pyrimidin-4(3H)-one], for which the solubility (commonly the concentration that dissolves in the medium under given conditions) at 2 h is not below 1 µM in series [1] (setting [3]) and 0.1 to 1 µM (≈ 0.0399 to 0.399 µg/mL) in series [1] (setting [4]). In addition, in series [2], the IC50 was less than 100 nM.

Regarding `Cc1nc(-c2cc3c(=O)n([C@@H](C)CO)cnc3c(-c3cccnc3)n2)cs1` [Compound 183, (S)-3-(1-hydroxypropan-2-yl)-6-(2-methylthiazol-4-yl)-8-(pyridin-3-yl)pyrido[3,4-d]pyrimidin-4(3H)-one], the solubility at 2 h in series [1] (setting [3]) and in series [1] (setting [4]) was not below 1 µM in each case. The IC50 in series [2] is more than 500 nM.
